# Measured values from paper PMC5833756, “A novel ruthenium complex with xanthoxylin induces S-phase arrest and causes ERK1/2-mediated apoptosis in HepG2 cells through a p53-independent pathway” (Cell Death & Disease, 2018).
# Experiments:
# p38 MAPK (pT180/pY182) = test: Phosflow analysis; format: cell-based, human; settings: HepG2, 12 µM RCX, 15 min, 30 min, 24 h
# Procedure: (§1) Phosphorylated ERK 1/2, JNK/SAPK and p38 MAPK were analyzed by flow cytometry. In brief, cells were collected and resuspended in 0.5–1 mL of 4% formaldehyde and fixed for 10 min at 37 °C. Then, the tubes were chilled on ice for 1 min. The cells were permeabilized by slowly adding ice-cold 100% methanol to prechilled cells while gently vortexing to a final concentration of 90% methanol and were incubated for 30 min on ice. After washing with incubation buffer (0.5% bovine serum albumin in PBS), PE mouse anti-ERK1/2 (pT202/pY204), PE mouse anti-JNK/SAPK (pT183/pY185), PE mouse anti-p38 MAPK (pT180/pY182) or PE mouse IgG1, κ isotype control antibodies, all from BD Biosciences, were added and incubated for 1 h at room temperature.
# ERK1/2 (pT202/pY204) = test: Phosflow analysis; format: cell-based, human; settings: HepG2, 12 µM RCX, 15 min, 30 min, 24 h
# Procedure: as §1
# JNK/SAPK (pT183/pY185) = test: Phosflow analysis; format: cell-based, human; settings: HepG2, 12 µM RCX, 15 min, 30 min, 24 h
# Procedure: as §1
# HepG2 cells [1] = test: Annexin V/PI staining assay (flow cytometry); settings: HepG2, 12 and 24 µM, 12-72 h
# Procedure: For apoptosis detection, we used the FITC Annexin V Apoptosis Detection Kit I (BD Biosciences), and the analysis was performed according to the manufacturer’s instructions. Briefly, cells were washed twice with saline and then resuspended in 100 μL of binding buffer with 5 μL of PI and 5 μL of FITC Annexin V. The cells were gently mixed by vortexing and incubated for 15 min at room temperature in the dark. Afterwards, 400 μL of binding buffer was added to each tube, and the cell fluorescence was determined by flow cytometry, as described above. The percent of viable, early apoptotic, late apoptotic and necrotic cells were determined. […] The cells were then trypsinized, and the FITC Annexin V Apoptosis Detection assay was conducted as described above.
# caspase-9 = test: Caspase-9 colorimetric activation assay; format: cell-based, human; settings: HepG2, 48 h
# Procedure: A caspase-3 colorimetric assay kit (Sigma-Aldrich), caspase-8 colorimetric assay kit (BioVision Inc.; Milpitas, CA, USA) and caspase-9 colorimetric assay kit (Invitrogen; Frederick, MD, USA) were used to investigate the activation of caspase-3, -8 and -9 in RCX-treated HepG2, respectively. […] Briefly, cells were lysed by incubation with cell lysis buffer on ice for 10 min and then centrifuged. Enzyme reactions were carried out in a 96-well flat-bottom microplate. To each reaction mixture, 5 μL of cell lysate was added. Absorbance at 405 nm was measured using the SpectraMax 190 Microplate Reader (Molecular Devices). The results are expressed as the specific activity (IU/mg protein) of each caspase.
# HepG2 cells [2] = test: Intracellular reactive oxygen species levels (DCF-DA); format: cell-based, human; settings: HepG2, 1 or 3 h
# Procedure: The production levels of ROS were measured according to a previously described method[39] using DCF-DA (Sigma-Aldrich). […] Then, the cells were collected, washed with saline and resuspended in FACS tubes with saline containing 5 μM DCF-DA for 30 min. […] A protection assay using the antioxidant NAC (Sigma-Aldrich) was also performed. […] The cells were then trypsinized, and the TBE assay was performed.
# HepG2 cells [3] = test: DNA synthesis quantification (methyl-[3H]-thymidine incorporation); format: cell-based, human
# Procedure: Cellular DNA synthesis was quantified by the incorporation of methyl-[^3H]-thymidine. Methyl-[^3H]-thymidine is a radiolabeled DNA precursor that is incorporated into newly synthesized DNA. Briefly, the complex was added along with 1 µCi of methyl-[^3H]-thymidine (PerkinElmer; Shelton, CT, USA) and incubated for 3 h. After this incubation period, cultures were harvested using a cell harvester (Brandel, Inc., Gaithersburg, MD, USA), and the amount of incorporated^3H-thymidine was determined using a liquid scintillation cocktail Hidex Maxilight (PerkinElmer Life Sciences; Groningen, GE, Netherlands) and a plate CHAMELEON V multilabel Counter (Mustionkatu 2, Turku, Finland). Mitoxantrone (Sigma-Aldrich) was used as the positive control.
compound,measurement,setting,value
"COc1cc([O-])c(C(C)=O)c(OC)c1.F[P-](F)(F)(F)(F)F.[Ru+2].c1cnc2c(c1)ccc1cccnc12.c1cnc2c(c1)ccc1cccnc12 [RCX, cis-[Ru(phen)2(xant)](PF6)]",phosphorylation of p38 MAPK,p38 MAPK (pT180/pY182),an increase in the phosphorylation of p38 MAPK was not observed at any time point investigated
same,phosphorylation of ERK1/2,ERK1/2 (pT202/pY204),induced the phosphorylation of ERK1/2 after 15- and 30-min incubations
same,phosphorylation of JNK/SAPK,JNK/SAPK (pT183/pY185),the phosphorylation of JNK/SAPK after a 15-min incubation
same,induction of apoptosis,HepG2 cells [1],caused apoptosis in a time- and concentration-dependent manner
same,caspase-9 activity,caspase-9,caused the activation of all caspases analyzed
same,ROS levels,HepG2 cells [2],did not induce a significant increase in ROS levels
same,reduction of DNA synthesis,"HepG2 cells [3]; HepG2, 12 μM",46.4%
same,reduction of DNA synthesis,"HepG2 cells [3]; HepG2, 24 μM",65.2%
